Test results reported in ChEMBL document CHEMBL1154834, “A theoretical study of the structure-radical scavenging activity of trans-resveratrol analogues and cis-resveratrol in gas phase and water environment” (Eur J Med Chem, 2010).

Experiment: Antioxidant activity assessed as concentration required to double citronellal oxidation half life by thermo-oxidation method relative to control
Format: functional

| SMILES | Activity [µM] |
| --- | --- |
| Oc1ccc(CCc2cc(O)cc(O)c2)cc1 | 260 |
| Oc1ccc(/C=C\c2cc(O)cc(O)c2)cc1 | 241 |
| Oc1ccc(/C=C/c2cc(O)cc(O)c2)cc1 | 135 |
